From patent US20260116868A1 (Arcus Biosciences, Inc., priority 2023, published 2026)
Where two headings read alike, the source gives them in different places.

Legend:
[1] = molecular target: T1, Cbl-b (Homo sapiens, UniProt Q13191); assay: Cbl-b probe displacement HTRF binding assay; settings: 0.4 nM Cbl-b, 150 nM BODIPY probe
T1 construct: biotin (biotinylated protein)
In short: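 Compound competes with BODIPY probe (150 nM) for biotinylated Cbl-b (0.4 nM) in HEPES/NaCl/Triton/TCEP/BSA buffer; 60 min preincubation, 15 min with probe, room temperature. Tb-streptavidin HTRF read; % displacement vs DMSO and no-protein controls, IC50 from four-parameter fit.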

[2] = tested on: Jurkat cells; assay: IL-2 secretion assay in Jurkat cells activated with CD3/CD28 T Cell Activator; assay type: cell-based; settings: Homo sapiens, 24 h, read-out: IL-2 Secretion (EC50)
Method: Certain compounds were also evaluated in an IL-2 secretion assay. On the day of the assay, a 16 point, 1:2 master serial dilution of each compound was prepared in Opti-MEM to span a final concentration range of 10 μM to 300 pM. Assays were set up in CORNING® tissue culture-treated 384-well microplates containing 60 nL of each dilution. Jurkat cells grown in RPMI-1640 supplemented with 10% FBS, 1% Glutamax, and 1% Pen/Strep were collected, resuspended in Opti-MEM. 50,000 cells/well and added to the compound plates. After a short spin (1200 rpm for 1 min), the plates were incubated at 37° C. for 1 hour. The cells were activated by adding 15 μL of IMMUNOCULT™ Human CD3/CD28 T Cell Activator (STEMCELL Technologies) diluted in Opti-MEM. After 24 h of incubation at 37° C., aliquots of culture supernatants were transferred to OptiPlate-384 (PerkinElmer) microplates. The level of IL-2 secretion in the supernatants was then determined using the IL-2 (human) AlphaLISA Detection Kit (PerkinElmer) according to the manufacturer's recommendations. The AlphaLISA signal was measured using an EnVision plate reader (PerkinElmer). EC50 values were determined by fitting the data to a standard 4-parameter logistic equation. See Table 7 for data for select compounds (IL-2 Secretion (EC50)).

[3] = Jurkat cells, CD3/CD28 T Cell Activator, IL-2 AlphaLISA

T1 sequence (Q13191 whole entry, species assumed): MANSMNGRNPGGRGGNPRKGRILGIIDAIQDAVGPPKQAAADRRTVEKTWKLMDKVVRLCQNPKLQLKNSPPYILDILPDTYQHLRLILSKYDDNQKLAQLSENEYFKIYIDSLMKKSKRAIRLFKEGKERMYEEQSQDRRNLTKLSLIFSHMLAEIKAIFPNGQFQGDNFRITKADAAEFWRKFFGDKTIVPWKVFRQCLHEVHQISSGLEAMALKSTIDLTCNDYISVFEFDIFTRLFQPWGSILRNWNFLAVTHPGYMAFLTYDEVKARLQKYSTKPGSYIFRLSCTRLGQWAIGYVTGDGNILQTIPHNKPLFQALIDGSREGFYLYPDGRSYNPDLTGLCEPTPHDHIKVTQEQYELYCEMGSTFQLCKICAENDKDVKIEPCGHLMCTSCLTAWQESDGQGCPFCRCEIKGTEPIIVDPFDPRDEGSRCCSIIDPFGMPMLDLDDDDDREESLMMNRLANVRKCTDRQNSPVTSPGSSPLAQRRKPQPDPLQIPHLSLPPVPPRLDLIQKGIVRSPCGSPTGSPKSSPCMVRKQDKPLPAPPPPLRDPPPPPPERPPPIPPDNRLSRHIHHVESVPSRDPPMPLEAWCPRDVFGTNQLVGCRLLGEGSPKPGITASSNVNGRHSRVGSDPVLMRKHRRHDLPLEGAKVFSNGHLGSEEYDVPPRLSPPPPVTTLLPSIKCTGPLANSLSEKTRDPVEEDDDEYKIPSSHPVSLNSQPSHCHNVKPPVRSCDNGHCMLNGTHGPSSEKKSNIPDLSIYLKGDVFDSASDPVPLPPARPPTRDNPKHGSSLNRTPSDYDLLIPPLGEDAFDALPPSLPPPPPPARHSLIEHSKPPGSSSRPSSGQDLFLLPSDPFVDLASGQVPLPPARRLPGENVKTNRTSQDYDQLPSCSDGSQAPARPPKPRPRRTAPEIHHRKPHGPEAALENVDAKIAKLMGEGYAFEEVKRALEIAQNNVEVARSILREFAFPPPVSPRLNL

| Structure (SMILES) | IC50 [1] [nM] | EC50 [2, 3] [nM] | EC50 ([2]; Jurkat) [nM] |
| --- | --- | --- | --- |
| CC1CC(c2cccc(NC(=O)c3cc(CN4CCC[C@H](C)C4)cn(C4CC4)c3=O)c2)(c2nncn2C)C1 (mixture of isomers) [Example 76, 1-cyclopropyl-N-[3-[3-methyl-1-(4-methyl-1,2,4-triazol-3-yl)cyclobutyl]phenyl]-5-[[(3S)-3-methylpiperidin-1-yl]methyl]-2-oxopyridine-3-carboxamide] | < 100 | < 100 | – |
| CC1CC(c2cccc(NC(=O)c3cc(CN4CCC[C@H](C)C4)cn(CC4CC4)c3=O)c2)(c2nncn2C)C1 (mixture of isomers) [Example 78, 1-(cyclopropylmethyl)-N-[3-[3-methyl-1-(4-methyl-1,2,4-triazol-3-yl)cyclobutyl]phenyl]-5-[[(3S)-3-methylpiperidin-1-yl]methyl]-2-oxopyridine-3-carboxamide] | < 100 | 100 to 1000 | – |
| C[C@@H]1CN(Cc2cc(C(=O)Nc3cc(-c4ccc(C#N)cc4-c4nccn4C)cc(C4CC4)n3)c(=O)n(C3CC3)c2)CCO1 (single isomer, unassigned) [Example 36] | 100 to 1000 | 1000 to 5000 | – |
| Cn1ccnc1-c1cc(C#N)ccc1-c1cc(NC(=O)c2cc(CO)cn(C3CC3)c2=O)nc(C2CC2)c1 (single isomer, unassigned) [Example 37, N-{4-[4-cyano-2-(1-methyl-2-imidazolyl)phenyl]-6-cyclopropyl-2-pyridyl}-1-cyclopropyl-5-(hydroxymethyl)-2-oxo-1,2-dihydronicotinamide] | 100 to 1000 | > 5000 | – |
| COCCNCc1cc(C(=O)Nc2cc(-c3ccc(C#N)cc3-c3ncoc3C)cc(C3CC3)n2)c(=O)n(C2CC2)c1 (single isomer, unassigned) [Example 50, N-{4-[4-cyano-2-(5-methyl-1,3-oxazol-4-yl)phenyl]-6-cyclopropyl-2-pyridyl}-1-cyclopropyl-5-[(2-methoxyethylamino)methyl]-2-oxo-1,2-dihydronicotinamide] | < 100 | < 100 | – |
| COCCNCc1cc(C(=O)Nc2cc(-c3ccc(C(=O)OC)cc3-c3ncoc3C)cc(C3CC3)n2)c(=O)n(C2CC2)c1 (single isomer, unassigned) [Example 51, methyl 4-(6-cyclopropyl-2-{1-cyclopropyl-5-[(2-methoxyethylamino)methyl]-2-oxo-1,2-dihydronicotinoylamino}-4-pyridyl)-3-(5-methyl-1,3-oxazol-4-yl)benzoate] | 100 to 1000 | 1000 to 5000 | – |
| O=C(Nc1cc(-c2ccc(OC(F)F)cc2C(=O)N2CC(F)(F)C2)cc(C2CC2)n1)c1cc(CNCC2CCCO2)cn(C2CC2)c1=O (stereo in doubt) [Example 84, N-(6-cyclopropyl-4-{2-[(3,3-difluoro-1-azetidinyl)carbonyl]-4-difluoromethoxyphenyl}-2-pyridyl)-5-[({[(R)-tetrahydro-2-furyl]methyl}amino)methyl]-1-cyclopropyl-2-oxo-1,2-dihydronicotinamide] | < 100 | < 100 | – |
| C[C@H]1CCCN(Cc2cc(C(=O)Nc3cc(-c4ccc(C#N)cc4-c4nncn4C)cc(C4CC4)n3)c(=O)n(C3CC3)c2)C1 [Example 1, N-{4-[4-cyano-2-(4-methyl-4H-1,2,4-triazol-3-yl)phenyl]-6-cyclopropyl-2-pyridyl}-5-{[(S)-3-methyl-1-piperidyl]methyl}-1-cyclopropyl-2-oxo-1,2-dihydronicotinamide] | < 100 | – | < 100 |
| C[C@H]1CCCN(Cc2cc(C(=O)Nc3cc(-c4ccc(F)cc4-c4nncn4C)cc(C4CC4)n3)c(=O)n(C3CC3)c2)C1 [Example 2, 1-Cyclopropyl-N-[6-cyclopropyl-4-[4-fluoro-2-(4-methyl-1,2,4-triazol-3-yl)phenyl]pyridin-2-yl]-5-[[(3S)-3-methylpiperidin-1-yl]methyl]-2-oxopyridine-3-carboxamide] | < 100 | < 100 | – |
| CC(C)CNCc1cc(C(=O)Nc2cc(-c3ccc(OC(F)F)cc3C(=O)N3CC(F)(F)C3)cc(C3CC3)n2)c(=O)n(C2CC2)c1 [Example 85, N-(6-cyclopropyl-4-{2-[(3,3-difluoro-1-azetidinyl)carbonyl]-4-difluoromethoxyphenyl}-2-pyridyl)-1-cyclopropyl-5-[(isobutylamino)methyl]-2-oxo-1,2-dihydronicotinamide] | – | < 100 | – |
| CO[C@@H](C)CNCc1cc(C(=O)Nc2cc(-c3ccc(OC(F)F)cc3C(=O)N3CC(F)(F)C3)cc(C3CC3)n2)c(=O)n(C)c1 [Example 87, N-[6-cyclopropyl-4-[2-(3,3-difluoroazetidine-1-carbonyl)-4-(difluoromethoxy)phenyl]pyridin-2-yl]-5-[[[(2S)-2-methoxypropyl]amino]methyl]-1-methyl-2-oxopyridine-3-carboxamide] | – | > 5000 | – |
| Cn1cc(CNC[C@@H]2CCCO2)cc(C(=O)Nc2cc(-c3ccc(OC(F)F)cc3C(=O)N3CC(F)(F)C3)cc(C3CC3)n2)c1=O [Example 88, N-[6-cyclopropyl-4-[2-(3,3-difluoroazetidine-1-carbonyl)-4-(difluoromethoxy)phenyl]pyridin-2-yl]-1-methyl-2-oxo-5-[[[(2S)-oxolan-2-yl]methylamino]methyl]pyridine-3-carboxamide] | – | < 100 | – |
| CO[C@@H](C)CNCc1cc(C(=O)Nc2cc(-c3ccc(OC(F)F)cc3C(=O)N3CC(F)(F)C3)cc(C3CC3)n2)c(=O)n(C2CC2)c1 [Example 89, N-(6-cyclopropyl-4-{2-[(3,3-difluoro-1-azetidinyl)carbonyl]-4-difluoromethoxyphenyl}-2-pyridyl)-5-{[(S)-2-methoxypropylamino]methyl}-1-cyclopropyl-2-oxo-1,2-dihydronicotinamide] | – | < 100 | – |
| O=C(Nc1cc(-c2ccc(Cl)cc2C(=O)N2CC(F)(F)C2)cc(C2CC2)n1)c1cc(CNC[C@@H]2CCCO2)cn(C2CC2)c1=O [Example 90, N-(4-{4-chloro-2-[(3,3-difluoro-1-azetidinyl)carbonyl]phenyl}-6-cyclopropyl-2-pyridyl)-5-[({[(S)-tetrahydro-2-furyl]methyl}amino)methyl]-1-cyclopropyl-2-oxo-1,2-dihydronicotinamide] | – | < 100 | – |
| CCOc1cc(-c2ccc(Cl)cc2C(=O)N2CC(F)(F)C2)cc(NC(=O)c2cc(CNC[C@@H]3CCCO3)cn(C3CC3)c2=O)n1 [Example 91, N-(4-{4-chloro-2-[(3,3-difluoro-1-azetidinyl)carbonyl]phenyl}-6-ethoxy-2-pyridyl)-5-[({[(S)-tetrahydro-2-furyl]methyl}amino)methyl]-1-cyclopropyl-2-oxo-1,2-dihydronicotinamide] | – | < 100 | – |
| CC(C)Nc1cc(-c2ccc(Cl)cc2C(=O)N2CC(F)(F)C2)cc(NC(=O)c2cc(CNC[C@@H]3CCCO3)cn(C3CC3)c2=O)n1 [Example 92, N-(4-{4-chloro-2-[(3,3-difluoro-1-azetidinyl)carbonyl]phenyl}-6-(isopropylamino)-2-pyridyl)-5-[({[(S)-tetrahydro-2-furyl]methyl}amino)methyl]-1-cyclopropyl-2-oxo-1,2-dihydronicotinamide] | – | < 100 | – |
| N#Cc1ccc(-c2cc(NC(=O)c3cc(CNC[C@@H]4CCCO4)cn(CC(F)(F)F)c3=O)nc(C3CC3)c2)c(C(=O)N2CC(F)(F)C2)c1 [Example 93, N-[4-[4-cyano-2-(3,3-difluoroazetidine-1-carbonyl)phenyl]-6-cyclopropylpyridin-2-yl]-2-oxo-5-[[[(2S)-oxolan-2-yl]methylamino]methyl]-1-(2,2,2-trifluoroethyl)pyridine-3-carboxamide] | – | < 100 | – |
